Data: PubChem BioAssay (NCI)
Several values for one entry are separate records, joined by “and”; a condition that tells them apart may be missing. Identical values can stand only once.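 Protocol summary: plate cells (96-well), add compound at 5 concentrations, incubate 48 h, interpolate endpoints linearly. GI50 is the concentration that inhibits growth by half. At the TGI there is no net growth.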

Key:
Assay in all cases: growth of human tumour cells (NCI), 48 h
BT-549 breast = system: BT-549 breast
HL-60(TB) leukemia = system: HL-60(TB) leukemia
HS 578T breast = system: HS 578T breast
NCI-H460 lung = system: NCI-H460 lung
NCI-H522 lung = system: NCI-H522 lung
OVCAR-5 ovarian = system: OVCAR-5 ovarian
OVCAR-8 ovarian = system: OVCAR-8 ovarian
PC-3 prostate = system: PC-3 prostate
RXF 393 renal = system: RXF 393 renal
SK-MEL-28 melanoma = system: SK-MEL-28 melanoma

Row | SMILES | GI50 (BT-549 breast) [µM] | TGI (BT-549 breast) [µM] | GI50 (HL-60(TB) leukemia) [µM] | TGI (HL-60(TB) leukemia) | GI50 (HS 578T breast) [µM] | TGI (HS 578T breast) [µM] | GI50 (NCI-H460 lung) [µM] | TGI (NCI-H460 lung) [µM] | GI50 (NCI-H522 lung) [µM] | TGI (NCI-H522 lung) [µM] | GI50 (OVCAR-5 ovarian) [µM] | TGI (OVCAR-5 ovarian) [µM] | GI50 (OVCAR-8 ovarian) [µM] | TGI (OVCAR-8 ovarian) | GI50 (PC-3 prostate) [µM] | TGI (PC-3 prostate) [µM] | GI50 (RXF 393 renal) [µM] | TGI (RXF 393 renal) [µM] | GI50 (SK-MEL-28 melanoma) [µM] | TGI (SK-MEL-28 melanoma) [µM]
1 | CC(C)[C@@]12C[C@@H](OC(=O)COC(=O)c3ccccc3)[C@@](C)(O1)[C@@H]1CC[C@@H](C)[C@H]1[C@@H]2OC(=O)/C=C/c1ccccc1 | 0.304 | > 100 | > 75.1 | > 100 µM | 0.0135 | 0.0701 | > 100 | > 100 | > 100 | > 100 | > 100 | > 100 | 0.134 | > 100 µM | 22.7 | > 100 | 0.284 | > 8.44 | > 100 | > 100
2 | COc1ccc(-c2nc3sccn3c2-c2ccnc(NCCNS(=O)(=O)c3ccc(C(F)(F)F)cc3)n2)cc1 | 0.707 | 5.94 | 0.494 | > 100 µM | 2.35 | > 100 | 2 | 11.6 | 2.81 | 17 | 9.38 | > 100 | 2.85 | > 100 µM | 0.303 | 3.34 | 2.66 | 63.2 | 3.68 | 55.5
3 | COc1ccc(N=Nc2ccc(O)c(=O)cc2)cc1 | 2.03 | 11.6 | 3.55 | > 100 µM | 4.41 | > 100 | 1.79 | 18.9 | 2.88 | 13.4 | 5.89 | > 100 | 2.88 | > 100 µM | 4.82 | > 100 | 3.71 | > 100 | 3.06 | 31.6
4 | O=C(O)CN1C(=O)OC(c2ccccc2)C1=O (stereo not drawn) | – | > 100 | – | > 100 µM | – | > 100 | – | > 100 | – | > 100 | – | > 100 | – | > 100 µM | – | > 100 | – | > 100 | – | > 100
5 | CC(=O)OC1C(O)C(C)OC(OC2C(OC(=O)C3CCC4C(C3)OC3(CC(OC(=O)/C=C/c5ccccc5)C(C)CO3)C43CO3)OC(C)C(O)C2OC(C)=O)C1O (stereo not drawn) | – | 0.0147 | – | 0.0192 µM | – | 0.00669 | – | 0.141 | – | 0.0156 | – | 0.144 | – | 0.198 µM | – | 0.0442 | – | 0.121 | – | 0.0305
6 | COc1cc2c(Nc3ccc(-c4ccc(N)cc4)cc3)ncnc2c(OC)c1OC | 7.99 | 55 | 2.54 | 20.4 µM | 11.5 | > 68 | 2.89 | > 66.4 | 3.15 | > 80.9 | 6.29 | > 100 | 5.46 | 56.9 µM | 5.46 | > 89.1 | 24.9 | > 95.9 | 11.9 | > 100
7 | CCN1C(=O)/C(=c2\sc3n(c2=O)C2C(NN=3)N(CC)C(=O)N2CC)c2ccccc21 (stereo not drawn) | 1.37 | 14.4 | 0.303 | 1.01 µM | 0.341 | 31.6 | 0.402 | > 100 | 0.384 | 6.99 | 2.02 | > 100 | 0.665 | > 100 µM | 0.46 | > 100 | 0.279 | 0.814 | 0.907 | > 100
8 | COc1cc(/C=C2\CCC/C(=C\c3cc(CN4CCCC4)c(O)c(OC)c3)C2=O)cc(CN2CCCC2)c1O | 4.79 | 17.8 | 2.15 | 5.75 µM | 5.75 | 50.9 | 2.97 | 10.6 | 2.5 | 7.92 | 4.18 | 13.4 | 3.27 | > 100 µM | 3.88 | 16.6 | 1.72 | 5.68 | 10.1 | 22.7
9 | CCOC(=O)C1=C(C)NC2SC(=O)/C(=C\c3cccc(Cl)c3)N2C1c1ccccc1 (stereo not drawn) | > 100 | > 100 | > 100 | > 100 µM | 90.4 | > 100 | > 100 | > 100 | > 100 | > 100 | > 100 | > 100 | > 100 | > 100 µM | > 100 | > 100 | > 100 | > 100 | > 100 | > 100
10 | Cc1nc2ccc(-n3ncc(C(=O)c4cc5ccccc5[nH]4)c3N)cc2[nH]1 | 5.43 | 38.6 | 11.9 | 45.9 µM | 10.5 | > 100 | 2.39 | 40.6 | 10.1 | 33.3 | 16 | > 100 | 7.08 | > 100 µM | 9.65 | > 100 | 2.47 | 15.7 | 8.78 | > 100
11 | O=C1CCc2cc(Br)ccc2O1 | – | > 100 | – | > 100 µM | – | > 100 | – | > 100 | – | > 100 | – | > 100 | – | > 100 µM | – | > 100 | – | 91.2 | – | > 100
12 | Cc1[nH]c(C(=O)Nc2cccc(OC3CCNCC3)c2)c(Cl)c1Cl | 4.65 | 18.1 | 1.91 | 4.08 µM | 2.02 | 5.16 | 1.95 | 3.7 | 1.86 | 4.02 | 1.63 | 3.11 | 2.05 | 4.31 µM | 1.69 | 3.36 | 1.74 | 3.46 | 1.64 | 3.07
13 | CCCCCCCCCCCCC(O)C1CCC(C(O)CCCCC(O)CCCCCC2CC(CC(C)=O)C(=O)O2)O1 (stereo not drawn) | – | 5.6 | 1.29 | 4.02 µM and 2.75 µM | – | 3.8 | – | > 43.8 | – | 19.9 | 3.92 | 23.6 | 1.38 | 3.48 µM and 20.9 µM | – | 4.24 | 5.33 | 21.4 | 2.85 | 14
14 | Cc1ccc(C2=NN(c3ccc(S(=O)(=O)NC(=O)NCc4ccccc4)cc3)C(c3ccc(N(C)C)cc3)C2)c(C)c1 (stereo not drawn) | 3.94 | 19.9 | 3.02 | 11.9 µM | 2.48 | 7.02 | 3.33 | 10.4 | 4.48 | 28.7 | 5.4 | 29.3 | 3.81 | > 100 µM | 3.33 | 42 | 3 | 9.8 | 2.36 | 6.89
15 | c1cc[n+](Cc2c3ccccc3cc3c2ccc2ccccc23)cc1 | 1.73 | 4.6 | 3.15 | 12.5 µM | 1.96 | 8.65 | 3.26 | 11.9 | 1.68 | 5.31 | 11.1 | 26.8 | 3.49 | 16.1 µM | 2.8 | 14.4 | 8.61 | 47.5 | 2.11 | 5.5
16 | CCc1ccc(Oc2c(-c3ccc(OCCc4cccc(C(F)(F)F)c4)cc3O)n[nH]c2C(F)(F)F)cc1 | 6.17 | 12.5 | 5.2 | 12.9 µM | 6.04 | 15.4 | 1.67 | 5.74 | 1.88 | 5.77 | 7.64 | 14.4 | 5.25 | 11.6 µM | 3.7 | 10.5 | 4.94 | 11.4 | 5.39 | 11.4
17 | NS(=O)(=O)c1ccc(N=Nc2c(O)[nH]c3ccc(C(=O)NCCCn4ccnc4)cc23)cc1 | > 25 | > 25 | > 25 | > 25 µM | > 25 | > 25 | > 25 | > 25 | > 25 | > 25 | > 25 | > 25 | > 25 | > 25 µM | > 25 | > 25 | > 25 | > 25 | > 25 | > 25
18 | COc1ccc(-c2cc(=O)c3c(OC)c4ccoc4c(/C=C/C=O)c3o2)cc1 | 2.14 | 7.15 | 2.72 | 8.33 µM | 10.4 | > 100 | 4.7 | 39.4 | 34.6 | > 100 | 11.7 | 46.8 | 2.83 | 27.3 µM | 2.58 | 16.5 | 2.15 | 4.49 | 2.52 | 7.1
19 | O=C1/C(=C/c2ccc(Cl)cc2)CN(Cc2cn(CCCNc3ccnc4cc(Cl)ccc34)nn2)C/C1=C\c1ccc(Cl)cc1 | 1.64 | 3.18 | 0.809 | 3.33 µM | 1.39 | 5.95 | 0.429 | 2.06 | 1.61 | 3.17 | 1.26 | 3.06 | 0.572 | 1.41 µM | 0.391 | 1.59 | 1.65 | 3.15 | 1.82 | 3.41
20 | CS(=O)(=O)Nc1cc(-c2ccc3ncc(C#N)c(Nc4ccc(F)c(Cl)c4)c3c2)cnc1Cl | 0.0542 | 0.655 | 0.12 | 0.741 µM | 0.131 | 0.798 | 0.301 | > 29.1 | 0.113 | 1.46 | 0.308 | 2.29 | 0.331 | > 100 µM | 0.197 | 10.6 | 0.125 | 0.6 | 0.133 | 1.47
21 | Cc1cc(O)ccc1C1(c2ccc(O)cc2C)OC(=O)c2ccccc21 | 17.1 | 36.4 | 22.8 | 64.2 µM | 18.9 | 46.3 | 19.7 | 40.4 | 18.5 | 35 | 16 | 32.9 | 23.3 | 46.5 µM | 18 | 35.6 | 18.5 | 33.9 | 17.3 | 35.4
22 | CC(C)c1cnc(-c2cc(Cl)ccc2F)cc1Nc1ccncc1C(=O)NC(CO)CO | 14.8 | 31.9 | 20.1 | 60.7 µM | 7.31 | 30.6 | 12.5 | 28.3 | 13 | 30.4 | 16.2 | 39.6 | 14.6 | 49.8 µM | 13.8 | 32.6 | 10.3 | 27 | 16.9 | 32.8
23 | COc1ccc2[nH]c(C(=O)OCc3ccc4c(Br)cc(Br)c(O)c4n3)cc2c1 | 0.881 | 2.16 | 0.7 | 3.41 µM | 1.66 | 4.97 | 1.48 | 3.18 | 0.395 | 1.82 | 1.21 | 2.66 | 0.907 | 2.64 µM | 0.73 | 2.27 | 0.486 | 1.8 | 1.26 | 2.53
24 | COc1ccccc1CNCCCN1C(=O)c2ccc3c4c(ccc(c24)C1=O)C(=O)N(CCCNCCCCNCCCN)C3=O | 1.7 | 3.57 | 0.409 | 1.69 µM | 1.34 | 5.49 | 0.36 | 1.5 | 0.176 | 0.362 | 2.03 | 11 | 0.285 | 2.19 µM | 0.561 | 5.23 | 0.323 | 1.39 | 0.388 | 1.44
25 | CCN1CCN(Cc2ccc(NC(=O)Nc3nc(-c4cc(OC)c(OC)c(OC)c4)cs3)cc2C(F)(F)F)CC1 | 1.91 | 4.58 | 1.94 | 4.25 µM | 1.65 | 5.04 | 1.65 | 3.2 | 1.65 | 3.13 | 1.62 | 3.44 | – | – | 1.64 | 6.99 | 1.41 | 2.84 | 1.65 | 3
